Values joined by “and” are separate entries in the source; they are usually repeats but may differ in a detail not shown here. Equal entries are not always repeated.
System: C. parvum (Bunch Grass Farms Iowa isolate)
Test: Neonatal calf model of cryptosporidiosis
Type: in vivo
Parameters: key to Oocyst Shedding, individual calves / Oocyst Shedding: C. parvum abundance per gram of fecal dry matter (qPCR); key to Fecal Consistency Score, individual calves / Fecal Consistency Score: score 1 = normal, 3 = severely abnormal
Conditions: for Fecal Consistency Score / Oocyst Shedding: 10 mg/kg every 12 h with delayed start
Protocol: All calf efficacy studies were performed as previously described. These studies were approved by the University of Vermont Institutional animal Care and Use Committee, and conducted in compliance with the USDA-APHIS “Blue Book”, available at www.aphis.usda.gov/animal-welfare. Holstein bull calves were acquired at birth from Green Mountain Dairy (Sheldon, VT), given synthetic colostrum with 200 g of IgG (Land O’Lakes, Ardent Hills, MO) and bovine coronavirus and Escherichia coli antibodies (First Defense Bolus, Immuncell Corporation, Portland, ME) within 2 h of birth, and transported to UVM. Calves were group-housed initially, and infected at 24–48 h of age during an interruption in bottle feeding by oral administration of ∼5 × 10^7 C. parvum Iowa isolate oocysts (Bunch Grass Farms, Deary, ID) suspended in 10 mL of water. They were then moved to individual raised pens, and observed twice daily at feeding times for clinical signs, which were quantified according to a previously described standardized scoring rubric. Data on fecal consistency, dehydration and overall health were collected, in each case with a score of 1 being normal and 3 being severely abnormal (scoring rubric in Supplementary Table 2). Clinical microbiologic studies for adventitious infectious agents including Salmonella culture, aerobic bacterial culture with E. coli genotyping, rotavirus, and coronavirus testing were performed on all calves at the onset of diarrhea by the Cornell Animal Health Diagnostic Center (Ithaca, NY). Animals with severe diarrhea or other symptoms were supported aggressively, including with administration of oral electrolytes, intravenous fluids and flunixin meglumine (Banamine, Merck) as needed. […] Daily fecal samples were obtained from collections bins located under each pen. Fecal samples used for parasite quantification were dried at 90 °C until stable in weight, and C. parvum abundance per gram of fecal dry matter was measured using qPCR and the primers Cp18s forward and Cp18s reverse.

CC1(C)OB(O)c2cc(NC(=O)c3ccc(-n4cccn4)cc3Cl)ccc21 [AN7973]
Fecal Consistency Score (Calf 1, Day 2): 1.67
Oocyst Shedding (Calf 1, Day 2): 4028
Fecal Consistency Score (Calf 1, Day 3): 2
Oocyst Shedding (Calf 1, Day 3): 3180923
Fecal Consistency Score (Calf 1, Day 4): 2.33
Oocyst Shedding (Calf 1, Day 4): 4800342
Fecal Consistency Score (Calf 1, Day 5): 1.5
Oocyst Shedding (Calf 1, Day 5): 120115
Fecal Consistency Score (Calf 1, Day 6): 1
Oocyst Shedding (Calf 1, Day 6): 5946
Fecal Consistency Score (Calf 1, Day 7): 1
Oocyst Shedding (Calf 1, Day 7): 4811
Fecal Consistency Score (Calf 1, Day 8): 1
Oocyst Shedding (Calf 1, Day 8): 154
Fecal Consistency Score (Calf 1, Day 9): 1
Oocyst Shedding (Calf 1, Day 9): 1
Fecal Consistency Score (Calf 1, Day 10): 1
Oocyst Shedding (Calf 1, Day 10): 1
Fecal Consistency Score (Calf 1, Day 11): 1
Oocyst Shedding (Calf 1, Day 11): 164
Fecal Consistency Score (Calf 1, Day 12): 1
Oocyst Shedding (Calf 1, Day 12): 1032
Fecal Consistency Score (Calf 1, Day 13): 1
Oocyst Shedding (Calf 1, Day 13): 1
Fecal Consistency Score (Calf 1, Day 14): 1
Oocyst Shedding (Calf 1, Day 14): 1
Fecal Consistency Score (Calf 2, Day 0): 1
Oocyst Shedding (Calf 2, Day 0): 1
Fecal Consistency Score (Calf 2, Day 1): 3
Oocyst Shedding (Calf 2, Day 1): 15983
Fecal Consistency Score (Calf 2, Day 2): 2
Oocyst Shedding (Calf 2, Day 2): 572309
Fecal Consistency Score (Calf 2, Day 3): 2.67
Oocyst Shedding (Calf 2, Day 3): 9928800
Fecal Consistency Score (Calf 2, Day 4): 3
Oocyst Shedding (Calf 2, Day 4): 10753010
Fecal Consistency Score (Calf 2, Day 5): 2.33
Oocyst Shedding (Calf 2, Day 5): 89411
Fecal Consistency Score (Calf 2, Day 6): 1
Oocyst Shedding (Calf 2, Day 6): 36783
Fecal Consistency Score (Calf 2, Day 7): 1
Oocyst Shedding (Calf 2, Day 7): 6676
Fecal Consistency Score (Calf 2, Day 8): 1
Oocyst Shedding (Calf 2, Day 8): 2648
Fecal Consistency Score (Calf 2, Day 9): 1
Oocyst Shedding (Calf 2, Day 9): 2147
Fecal Consistency Score (Calf 2, Day 10): 1
Oocyst Shedding (Calf 2, Day 10): 401
Fecal Consistency Score (Calf 2, Day 11): 1
Oocyst Shedding (Calf 2, Day 11): 10
Fecal Consistency Score (Calf 2, Day 12): 1
Oocyst Shedding (Calf 2, Day 12): 1
Fecal Consistency Score (Calf 2, Day 13): 1
Oocyst Shedding (Calf 2, Day 13): 1
Fecal Consistency Score (Calf 2, Day 14): 1
Oocyst Shedding (Calf 2, Day 14): 1
Fecal Consistency Score (Calf 3, Day 0): 1
Oocyst Shedding (Calf 3, Day 0): 1
Fecal Consistency Score (Calf 3, Day 1): 3
Oocyst Shedding (Calf 3, Day 1): 4675
Fecal Consistency Score (Calf 3, Day 2): 2.33
Oocyst Shedding (Calf 3, Day 2): 376713
Fecal Consistency Score (Calf 3, Day 3): 2.5
Oocyst Shedding (Calf 3, Day 3): 3074178
Fecal Consistency Score (Calf 3, Day 4): 3
Oocyst Shedding (Calf 3, Day 4): 1097033
Fecal Consistency Score (Calf 3, Day 5): 2.33
Oocyst Shedding (Calf 3, Day 5): 172967
Fecal Consistency Score (Calf 3, Day 6): 1.5
Oocyst Shedding (Calf 3, Day 6): 10727
Fecal Consistency Score (Calf 3, Day 7): 1
Oocyst Shedding (Calf 3, Day 7): 1
Fecal Consistency Score (Calf 3, Day 8): 1
Oocyst Shedding (Calf 3, Day 8): 363
Fecal Consistency Score (Calf 3, Day 9): 1
Oocyst Shedding (Calf 3, Day 9): 1134
Fecal Consistency Score (Calf 3, Day 10): 1
Oocyst Shedding (Calf 3, Day 10): 624
Fecal Consistency Score (Calf 3, Day 11): 1
Oocyst Shedding (Calf 3, Day 11): 1
Fecal Consistency Score (Calf 3, Day 12): 1
Oocyst Shedding (Calf 3, Day 12): 1
Fecal Consistency Score (Calf 3, Day 13): 1
Oocyst Shedding (Calf 3, Day 13): 28
Fecal Consistency Score (Calf 3, Day 14): 1
Oocyst Shedding (Calf 3, Day 14): 1
Oocyst Shedding, individual calves (10 mg/kg every 24 h on days 2–8, Day 0): 100 and 331 and 774
Oocyst Shedding, individual calves (10 mg/kg every 24 h on days 2–8, Day 1): 6698 and 100 (2×)
Oocyst Shedding, individual calves (10 mg/kg every 24 h on days 2–8, Day 3): 644594 and 196913 and 724661
Oocyst Shedding, individual calves (10 mg/kg every 24 h on days 2–8, Day 4): 119580 and 31776 and 1355
Oocyst Shedding, individual calves (10 mg/kg every 24 h on days 2–8, Day 5): 573 and 17468 and 8981
Oocyst Shedding, individual calves (10 mg/kg every 24 h on days 2–8, Day 7): 67293 and 6611 and 7598
Oocyst Shedding, individual calves (10 mg/kg every 24 h on days 2–8, Day 9): 54864 and 100 and 1163
Oocyst Shedding, individual calves (10 mg/kg every 24 h on days 2–8, Day 10): 139951 and 100 and 1010
reduction of total burden of fecal C. parvum shedding (AUC) (bovine, in vivo): over 90%
reduction of fecal C. parvum shedding rate (first three days of treatment): nearly five logs
Fecal Consistency Score, individual calves (scale 1 normal to 3 severely abnormal, 5 mg/kg every 12 h on days 2–8, Day 0): 1
Fecal Consistency Score, individual calves (scale 1–3, 5 mg/kg every 12 h on days 2–8, Day 1): 1
Fecal Consistency Score, individual calves (scale 1–3, 5 mg/kg every 12 h on days 2–8, Day 2): 1
Fecal Consistency Score, individual calves (scale 1–3, 5 mg/kg every 12 h on days 2–8, Day 3): 1
Fecal Consistency Score, individual calves (scale 1–3, 5 mg/kg every 12 h on days 2–8, Day 4): 1
Fecal Consistency Score, individual calves (scale 1–3, 5 mg/kg every 12 h on days 2–8, Day 5): 1
Fecal Consistency Score, individual calves (scale 1–3, 5 mg/kg every 12 h on days 2–8, Day 6): 1
Fecal Consistency Score, individual calves (scale 1–3, 5 mg/kg every 12 h on days 2–8, Day 7): 1
Fecal Consistency Score, individual calves (scale 1–3, 5 mg/kg every 12 h on days 2–8, Day 8): 1
Fecal Consistency Score, individual calves (scale 1–3, 5 mg/kg every 12 h on days 2–8, Day 9): 1
Fecal Consistency Score, individual calves (scale 1–3, 5 mg/kg every 12 h on days 2–8, Day 10): 1
Fecal Consistency Score, individual calves (scale 1–3, 10 mg/kg every 24 h on days 2–8, Day 0): 1
Fecal Consistency Score, individual calves (scale 1–3, 10 mg/kg every 24 h on days 2–8, Day 1): 1
Fecal Consistency Score, individual calves (scale 1–3, 10 mg/kg every 24 h on days 2–8, Day 2, 10 mg/kg): 1.33 (2×) and 2.67
Fecal Consistency Score, individual calves (scale 1–3, 10 mg/kg every 24 h on days 2–8, Day 3, 10 mg/kg): 2 (2×) and 2.33
Fecal Consistency Score, individual calves (scale 1–3, 10 mg/kg every 24 h on days 2–8, Day 4, 10 mg/kg): 2.33 and 1.33 (2×)
Fecal Consistency Score, individual calves (scale 1–3, 10 mg/kg every 24 h on days 2–8, Day 5): 1
Fecal Consistency Score, individual calves (scale 1–3, 10 mg/kg every 24 h on days 2–8, Day 6): 1
Fecal Consistency Score, individual calves (scale 1–3, 10 mg/kg every 24 h on days 2–8, Day 7): 1
Fecal Consistency Score, individual calves (scale 1–3, 10 mg/kg every 24 h on days 2–8, Day 8): 1
Fecal Consistency Score, individual calves (scale 1–3, 10 mg/kg every 24 h on days 2–8, Day 9): 1
Fecal Consistency Score, individual calves (scale 1–3, 10 mg/kg every 24 h on days 2–8, Day 10): 1
effect on dehydration (several of the treatment regimens): significantly reduced the overall severity of dehydration
tolerability in calves (twice daily assessment of alertness, interaction, appetite): tolerated AN7973 well
